ChEMBL document CHEMBL3860075, “Synthesis, characterization, and evaluation of (E)-methyl 2-((2-oxonaphthalen-1(2H)-ylidene)methylamino)acetate as a biological agent and an anion sensor” (Bioorg Med Chem, 2016)
In brackets after ≈: the same amount, converted by molar mass. Activity calls are given as the source filed them. The calls are words filed in the database; no cut-off is given here.

Tests used:
Candida tropicalis = assay: Antimicrobial activity against Candida tropicalis ATCC 13803 after 24 hrs by broth microdilution assay; format: functional; conditions: ATCC 13803, 24 h
Enterococcus faecalis = assay: Antimicrobial activity against Enterococcus faecalis ATCC 29212 after 24 hrs by broth microdilution assay; format: functional; conditions: ATCC 29212, 24 h
Bacillus spizizenii = assay: Antimicrobial activity against Bacillus subtilis ATCC 6633 after 24 hrs by broth microdilution assay; format: functional; conditions: ATCC 6633, 24 h
Pseudomonas aeruginosa = assay: Antimicrobial activity against Pseudomonas aeruginosa ATCC 254992 after 24 hrs by broth microdilution assay; format: functional; conditions: ATCC 254992, 24 h
Proteus vulgaris = assay: Antimicrobial activity against Proteus vulgaris ATCC 13315 after 24 hrs by broth microdilution assay; format: functional; conditions: ATCC 13315, 24 h
Staphylococcus aureus = assay: Antimicrobial activity against Staphylococcus aureus ATCC 25923 after 24 hrs by broth microdilution assay; format: functional; conditions: ATCC 25923, 24 h
Escherichia coli [1] = assay: Antimicrobial activity against Escherichia coli ATCC 25922 after 24 hrs by broth microdilution assay; format: functional; conditions: ATCC 25922, 24 h
Escherichia coli [2] = assay: Antimicrobial activity against Escherichia coli ATCC 35218 after 24 hrs by broth microdilution assay; format: functional; conditions: ATCC 35218, 24 h
Candida albicans = assay: Antimicrobial activity against Candida albicans ATCC 60193 after 24 hrs by broth microdilution assay; format: functional; conditions: ATCC 60193, 24 h
Bos taurus [3] = species: Bos taurus; assay: Binding affinity to calf thymus DNA assessed as formation of intense band at 260 nanometer at 3 10^-5M after 5 mins by UV-visible spectroscopic analysis
Bos taurus [4] = species: Bos taurus; assay: Binding affinity to calf thymus DNA assessed as bathochromism at 3 10^-5M after 5 mins by UV-visible spectroscopic analysis
Escherichia coli [5] = assay: Induction of oxidative cleavage of Escherichia coli supercoiled pBR322 DNA assessed as increase in nicked circular form at 25 uM after 3 hrs in presence of H2O2 by agarose gel electrophoretic analysis
Escherichia coli [6] = assay: Induction of hydrolytic cleavage of Escherichia coli supercoiled pBR322 DNA assessed as increase in nicked circular form at 200 uM after 3 hrs by agarose gel electrophoretic analysis
Salmonella typhimurium [7] = assay: Genotoxicity in Salmonella typhimurium TA98 at 0.5 to 500 ppm per plate in absence of S9 fraction by Ames test; format: toxicity, organism-based; conditions: salmonella enterica subsp. enterica serovar typhimurium
Salmonella typhimurium [8] = assay: Genotoxicity in Salmonella typhimurium TA100 at 0.5 to 500 ppm per plate in absence of S9 fraction by Ames test; format: toxicity, organism-based; conditions: salmonella enterica subsp. enterica serovar typhimurium
[9] = Binding affinity to cyanide anion assessed as disappearance of peak at 430 nanometer at 5 10^-6M by UV-visible spectroscopic analysis
[10] = Binding affinity to cyanide anion assessed as compound color change from colorless to yellow at compound:anion ratio of 1:1 under natural light by colorimetric method
[11] = Binding affinity to 0.5 equiv tetrabutylamonium fluoride anion assessed as decrease in N-H proton intensity by 1H NMR method
[12] = Binding affinity to 1 equiv tetrabutylamonium fluoride anion assessed as disappearance of peak by 1H NMR method
[13] = Binding affinity to cyanide anion assessed as compound color change from colorless to yellow at compound:anion ratio of 1:1 under UV light by colorimetric method

Compound	MIC (Candida tropicalis) [µg/mL]	MIC (Enterococcus faecalis) [µg/mL]	MIC (Bacillus spizizenii) [µg/mL]	MIC (Pseudomonas aeruginosa) [µg/mL]	MIC (Proteus vulgaris) [µg/mL]	MIC (Staphylococcus aureus) [µg/mL]	MIC (Escherichia coli [1]) [µg/mL]	MIC (Escherichia coli [2]) [µg/mL]	MIC (Candida albicans) [µg/mL]	Activity (Bos taurus [3])	Activity (Bos taurus [4]) [nm]	Activity (Escherichia coli [5])	Activity (Escherichia coli [6])	Activity (Salmonella typhimurium [7])	Activity (Salmonella typhimurium [8]) [%]	Activity [9]	Activity [10]	Activity [11]	Activity [12]	Activity [13]
OC(Cn1cncn1)(Cn1cncn1)c1ccc(F)cc1F [FLUCONAZOLE]	32 (≈ 104 µM)	–	–	–	–	–	–	–	–	–	–	–	–	–	–	–	–	–	–	–
CC1(C)S[C@@H]2[C@H](NC(=O)[C@H](N)c3ccccc3)C(=O)N2[C@H]1C(=O)O [AMPICILLIN]	–	2 (≈ 5.72 µM)	1 (≈ 2.86 µM)	2 (≈ 5.72 µM)	2 (≈ 5.72 µM)	–	–	–	–	–	–	–	–	–	–	–	–	–	–	–
COC(=O)CN/C=C1/C(=O)C=Cc2ccccc21	128 (≈ 526 µM)	256 (≈ 1050 µM)	128 (≈ 526 µM)	128 (≈ 526 µM)	256 (≈ 1050 µM)	128 (≈ 526 µM)	256 (≈ 1050 µM)	256 (≈ 1050 µM)	128 (≈ 526 µM)	Active	1 to 4	Active	Active	Non-Toxic	> 40	Active	Active	Active	Active	Active
